Where a name gives a salt, the structure may show the parent alone.

As to `CCc1c(NC(=O)OC[C@@H]2COCCN2)cn2ncnc(Nc3ccc4c(cnn4Cc4ccccc4)c3)c12` (as salt: hydrochloride) [Example 1, [5-ethyl-4-[[(1-phenylmethyl)-1H-indazol-5-yl]amino]pyrrolo[2,1-f][1,2,4]triazin-6-yl]-carbamic acid, (3S)-3-morpholinylmethyl ester], the melting point was greater than 300 °C.

Source of the values: patent publication US6916815B2, “C-6 modified indazolylpyrrolotriazines” (Bristol-Myers Squibb Company, priority 2002, dated 2005).
